# Results from patent publication EP0426021A1, “Condensed imidazole derivatives and processes for preparation thereof” (FUJISAWA PHARMACEUTICAL CO., LTD., priority 1989, dated 1991).
# Test system: spontaneous hypertensive rats
# Conditions: oral dose of 100 mg/kg, dissolved in water, male spontaneous hypertensive rats
# Protocol: (B) Effect on spontaneous hypertensive rats
# 14 to 17-week-old male spontaneous hypertensive rats with mean arterial blood pressure of about 150 mmHg, weighing 270-326 g, were used. The animals were cannulated in the left femoral artery and the mean blood pressure and heart rate were measured with a pressure-transducer. The drugs were given orally. The animals were deprived of food for about 18 hours before oral dosing. The test drugs were dissolved in water, and given in oral dose of 100 mg/kg.
compound,measurement,value
"CCCCc1nc2cccnc2n1Cc1ccc(-c2ccccc2-c2nnn[n-]2)cc1.[Na+] [compound ①, Sodium salt of 2-butyl-3-[[2′-(1H-tetrazol-5-yl)biphenyl-4-yl]methyl]-3H-imidazo[4,5-b]pyridine]",Effect Max (mean ratio of maximum decrease of blood pressure),17.6%
